Here are results for four compounds from patent publication EP4389751A1, “HETEROCYCLIC COMPOUNDS AND USES THEREOF” (Kumquat Biosciences Inc., priority 2021, dated 2024).

Structures are written as SMILES. Read-outs that look alike come from different tables or passages of the source.

One assay deals with T1, K-Ras G12S (Homo sapiens, UniProt P01116, G12S).
T1 construct: made in house; host or cells: E. coli (e.g., BL21 (DE3))
As to the kind of experiment: HTRF assay of the K-Ras / SOS1 interaction. The assay is classed as biochemical. The note with it: IC50 (against K-Ras G12D) to IC50 (against K-Ras G12S). The essentials: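 GST-K-Ras G12S with anti-GST-Eu donor and His-hSOS1 with anti-6His-XL665 acceptor in ~5 mM HEPES pH 7.4, ~150 mM NaCl, 1 mM DTT, 0.05% BSA, 0.0025% Igepal. Read after ~10 min or longer; IC50 from 665/620 nm ratio, duplicates at 10 µM down to 0.01 µM.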

For the next assay, the system named is GP2D cells. The assay is described as follows: Cell proliferation assay (CellTiter-Glo), K-Ras G12D cells. It is filed as cell-based. The note with it: GP2D cells (K-Ras G12D); read-out: Inhibition of GP2D Cells (IC50). The essentials:
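GP2D (K-Ras G12D) cells seeded in DMEM with 2 mM glutamine and 10% FBS, then dosed next day with a dilution series (e.g., 9-point 3-fold). Viability read by CellTiter-Glo luminescence after about 5 days. IC50 from four-parameter fit.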

Another assay relates to A549 cells. The assay is described as follows: Cell proliferation assay (CellTiter-Glo), K-Ras G12S cells. The note with it: for IC50: Homo sapiens, A549, A549 cells (K-Ras G12S), read-out: Inhibition of A549 Cells (IC50); for ratio of IC50 against a G12D cell line to IC50 against a G12S cell line: K-Ras G12D cell line such as GP2D relative to K-Ras G12S cell line such as A549, greater than 1, 2, 3, 4, 5, 10, 15 or even greater, 8640 min. It is filed as cell-based. The essentials:
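A549 cells (K-Ras G12S) in RPMI-1640 with 10% FBS, seeded in standard or ultra-low-attachment plates and dosed next day with a 10-point 3-fold series. Viability read about 6 days later by CellTiter-Glo luminescence. IC50 from four-parameter fit.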

T1 sequence (P01116 1-188 isoform P01116-2 G12S): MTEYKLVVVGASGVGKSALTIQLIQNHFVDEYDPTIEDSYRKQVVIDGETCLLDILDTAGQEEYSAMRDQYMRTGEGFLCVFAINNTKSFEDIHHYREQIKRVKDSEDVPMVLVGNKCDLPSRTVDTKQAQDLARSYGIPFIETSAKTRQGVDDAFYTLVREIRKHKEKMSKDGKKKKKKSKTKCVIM

On to `N#CCc1ncn(C(=O)N2CC3(C2)CN(c2nc(OC[C@@]45CCCN4C[C@H](F)C5)nc4c(F)c(-c5ccc(F)c6sc(N)c(C#N)c56)c(Cl)cc24)CCO3)n1` [Compound A110, 2-amino-4-(6-chloro-4-(2-(3-(cyanomethyl)-1H-1,2,4-triazole-1-carbonyl)-5-oxa-2,8-diazaspiro[3.5]nonan-8-yl)-8-fluoro-2-(((2R,7aS)-2-fluorotetrahydro-1H-pyrrolizin-7a(5H)-yl)methoxy)quinazolin-7-yl)-7-fluorobenzo[b]thiophene-3-carbonitrile], for which the “Ratio of IC50 KRAS G12D vs. IC50 KRAS G12S” value at K-Ras G12S was “A (A: indicates that the ratio of IC50 against KrasG12D vs. IC50 against KrasG12S is 1-fold or greater)”. Further, the IC50 was 1000 to 10000 nM in the assay with GP2D cells and at most 500 nM in the assay with A549 cells (bin ≤ 500 nM). Further, the “ratio of IC50 against a G12D cell line to IC50 against a G12S cell line” value in the assay on A549 cells is “greater than 1”.
Turning to `N#Cc1c(N)sc2c(F)ccc(-c3c(Cl)cc4c(N5CCOC6(CN(C(=O)n7ccnn7)C6)C5)nc(OC[C@@]56CCCN5C[C@H](F)C6)nc4c3F)c12` [Compound A195, 4-(4-(2-(1H-1,2,3-triazole-1-carbonyl)-5-oxa-2,8-diazaspiro[3.5]nonan-8-yl)-6-chloro-8-fluoro-2-(((2R,7aS)-2-fluorotetrahydro-1H-pyrrolizin-7a(5H)-yl)methoxy)quinazolin-7-yl)-2-amino-7-fluorobenzo[b]thiophene-3-carbonitrile], the “Ratio of IC50 KRAS G12D vs. IC50 KRAS G12S” value on K-Ras G12S is on record as “A (A: indicates that the ratio of IC50 against KrasG12D vs. IC50 against KrasG12S is 1-fold or greater)”. For the same compound, the IC50 in the assay with GP2D cells was 1000 to 10000 nM; with A549 cells (bin ≤ 500 nM), at most 500 nM.
As for `Nc1nc2c(-c3c(Cl)cc4c(N5CCCC6(CN(C(=O)n7cncn7)C6)C5)nc(OC[C@@]56CCCN5C[C@H](F)C6)nc4c3F)ccc(F)c2s1` [Compound A136, (6-(7-(2-amino-7-fluorobenzo[d]thiazol-4-yl)-6-chloro-8-fluoro-2-(((2R,7aS)-2-fluorotetrahydro-1H-pyrrolizin-7a(5H)-yl)methoxy)quinazolin-4-yl)-2,6-diazaspiro[3.5]nonan-2-yl)(1H-1,2,4-triazol-1-yl)methanone], the “Ratio of IC50 KRAS G12D vs. IC50 KRAS G12S” value at K-Ras G12S is listed as “A (A: indicates that the ratio of IC50 against KrasG12D vs. IC50 against KrasG12S is 1-fold or greater)”. Also, the IC50 in the assay with GP2D cells was in the range of 1000 to 10000 nM; in the assay on A549 cells (bin 500 nM to 5 µM) it was 500 to 5000 nM. Moreover, the “ratio of IC50 against a G12D cell line to IC50 against a G12S cell line” value in the assay on A549 cells is “greater than 1”.
Take `CN(C)C1CN(c2nc(N3CCOC4(CN(C(=O)n5cncn5)C4)C3)c3cc(Cl)c(-c4ccc(F)c5sc(N)c(C#N)c45)c(F)c3n2)C1` [Compound A256, 4-(4-(2-(1H-1,2,4-triazole-1-carbonyl)-5-oxa-2,8-diazaspiro[3.5]nonan-8-yl)-6-chloro-2-(3-(dimethylamino)azetidin-1-yl)-8-fluoroquinazolin-7-yl)-2-amino-7-fluorobenzo[b]thiophene-3-carbonitrile]: the “Ratio of IC50 KRAS G12D vs. IC50 KRAS G12S” value at K-Ras G12S is reported as “A (A: indicates that the ratio of IC50 against KrasG12D vs. IC50 against KrasG12S is 1-fold or greater)”. Besides, the results for the IC50 in the assay on GP2D cells and in the assay on A549 cells (bin ≤ 500 nM) were 1000 to 10000 nM and at most 500 nM, respectively.
